Measurements reported in patent US20100197625A1, “SYNTHETIC LIPOPHILIC INOSITOL GLYCANS FOR TREATMENT OF CANCER AND GLUCOSE-METABOLISM DISORDERS” (priority 2006, published 2010).

Tests used:
[1] = system: C57B/6 mice on normal diets; assay: Intravenous administration of IG1, mice on normal diets; type: in vivo
Experimental: (§1) Male C57BL/6 mice were housed individually and given free access to a standard diet (65% carbohydrate, 4% fat, and 24% protein) or a high-fat diet (Quick Fat; 60.2% carbohydrate, 15.3% fat, and 24.5% protein; Clea Japan, Tokyo, Japan), starting at 5 weeks of age, for 5 weeks. Db/db mice also were housed individually and given free access to a standard diet. C57BL/6 mice at 5 weeks of age, were received a single dose of 75 μg/g body weight streptozotoxin (STZ). 7 days after injections, the mice, whose fasting plasma glucose concentrations were over 400 mg/dl, were used as STZ-diabetic mice. […]
(§2) Frozen livers were homogenized, and triglycerides were extracted with CHCl3:CH3OH (2:1, vol:vol), dried and resuspended in 2-propanol (17). Triglyceride contents were measured using Lipidos liquid (TOYOBO, Osaka, Japan). […] Glycogen content was determined by the phenol-sulfuric acid spectrophotometric method at 490 nm (18) and expressed as micrograms of glycogen per milligram of liver.
(§3) Blood glucose was assayed with Glucose Ace (Sanwa Kagaku Kenkyusho, Nagoya, Japan). Serum insulin and leptin were determined with ELISA kits (Morinaga Institute of Biological Science, Yokohama, Japan). Serum adiponectin and tumor necrosis factor-α (TNF-α) concentrations were measured with an ELISA kit (Ohtsuka Pharmaceutical, Tokyo, Japan) and a TNF-α assay kit (Amersham Biosciences, Uppsala, Sweden), respectively. […]

ob/ob obese mice = assay: IG-1 treatment for 28 days, ob/ob obese mice; type: in vivo; conditions: IG1 1 mg, Mean ± SD (n = 6)
Experimental: Blood glucose was assayed with Glucose Ace (Sanwa Kagaku Kenkyusho, Nagoya, Japan). Serum insulin and leptin were determined with ELISA kits (Morinaga Institute of Biological Science, Yokohama, Japan). Serum adiponectin and tumor necrosis factor-α (TNF-α) concentrations were measured with an ELISA kit (Ohtsuka Pharmaceutical, Tokyo, Japan) and a TNF-α assay kit (Amersham Biosciences, Uppsala, Sweden), respectively. Serum total cholesterol, triglyceride, and FFA concentrations were determined with a Cholescolor liquid, Lipidos liquid (TOYOBO, Osaka, Japan), and NEFA C (Wako Pure Chemical, Osaka, Japan) kits, respectively.

[2] = system: C57B/6 mice on high-fat diets; assay: Intravenous administration of IG1, mice on high-fat diets; type: in vivo
Experimental: as §1, §2, §3

BXPC3 = assay: Cell proliferation / cell death assay, BXPC3; type: cell-based, human; conditions: BXPC3, 10-100 μM
Experimental: (§4) Human pancreatic cancer cell lines (Panc-1, MiaPaca2, BXPC3, Aspc 1), human hepatoma cell line (HuH7), human gastric cancer cell lines (AGS, MKN45), human colon cancer cell line (CoCM-1), human mammary cancer cell line (MCF-7), human neuroblastoma (SH-SY5Y), human prostate cancer cells (PC3), and murine Ehrlich ascites cancer cells and mouse 3T3-L1 fibroblasts were obtained from American Type Culture Collection (Rockville, Md., USA). The cancer cells were cultured in RPMI 1640 containing 10% fetal calf serum. Cultures were maintained at 37° C. in a humidified atmosphere of 5% CO2.
(§5) Cell proliferation assays were performed with the CellTiter 96 AQueous One Solution Cell Proliferation Assay kit according to the manufacturer's instructions (Promega, Madison, Wis., USA). Briefly, 5×10^3 cells/well in medium were placed onto 96-well plates. IGs were added to cellular cultures at final concentrations of 0, 1, 10, and 100 μM. Cultures were incubated for 3 days or 7 days and then added to 20 μL/well of CellTiter 96 AQueous One Solution Reagent, which contains a tetrazolium compound, 3-(4,5-dimethylthiazol-2-yl)-5-(3-carboxymethoxyphenyl)-2-(4-sulfophenyl)-2H-tetrazolium, an inner salt; MTS was added to the culture medium. After incubating the plate for 1 h in a CO2 incubator, absorbance at 490 nm was recorded with a 96-well plate reader.

[3] = system: streptozotocin (STZ)-diabetic mice; assay: Intravenous administration of IG1, STZ-diabetic mice; type: in vivo
Experimental: as §1, §2, §3

[4] = system: C57B/6 mice on normal diets; assay: Intraperitoneal IG1 for 7 days, mice on normal diets; type: in vivo; conditions: intraperitoneal for every 7 days, data not shown
Experimental: as §1, §2, §3

[5] = system: db/db, obese-diabetic mice; assay: Intravenous administration of IG1, db/db mice; type: in vivo
Experimental: as §1, §2, §3

MiaPaca2 = assay: Cell proliferation / cell death assay, MiaPaca2; type: cell-based, human; conditions: MiaPaca2, 10-100 μM
Experimental: as §4, §5

CCCCCCCCCCCCCCCC(=O)O[C@@H]1C(O)C(O)[C@H](O)C(O[C@H]2OC(CO)[C@@H](O)[C@H](O)C2N)C1O (stereo in doubt) [IG1, 2-Amino-2-deoxy-α-D-glucopyranosyl-(1→6)-2-palmitoyl-D-myo-inositol]
plasma glucose concentrations ([1]; intravenous, normal mice): reduced plasma glucose concentrations | hepatic and muscular glycogen synthesis ([1]; mice on normal diets, data not shown): increases hepatic and muscular glycogen synthesis | Adiponectin (ob/ob obese mice): 47.6 ± 4.6 µg/mL | Body weight (ob/ob obese mice): 40.1 ± 3.2 g | Fasting plasma glucose (ob/ob obese mice): 66.1 ± 8.3 mg/dL | Fasting plasma insulin (ob/ob obese mice): 16.3 ± 4.3 ng/mL | Food intake (ob/ob obese mice): 4.53 ± 0.74 g/day | NEFA (ob/ob obese mice): 0.88 ± 0.34 mEq/l | TNF-1α (ob/ob obese mice): 34.7 ± 6.7 pg/mL | Total cholesterol (ob/ob obese mice): 172.4 ± 13.6 mg/dL | Triglyceride (ob/ob obese mice): 31.2 ± 5.3 mg/dL | plasma glucose concentrations ([2]; intravenous, 0.3-1 mg per mice, 90-300 min after administration): significantly reduced plasma glucose concentrations | hepatic and muscular glycogen contents ([2]; mice on high-fat diets, data not shown): significantly increases hepatic and muscular glycogen contents | rapid cancer cell death (BXPC3): rapid cancer cell death was demonstrated | hepatic and muscular glycogen synthesis ([3]; STZ-diabetic mice, data not shown): increases hepatic and muscular glycogen synthesis | plasma glucose concentrations ([3]; intravenous, 0.3 mg per mice, 120-300 min after administration): significantly reduced plasma glucose concentrations | glucose tolerance [4]: improves glucose tolerance | hepatic and muscular glycogen synthesis [4]: increases hepatic and muscular glycogen synthesis | hepatic and muscular glycogen synthesis ([5]; data not shown): increases hepatic and muscular glycogen synthesis | plasma glucose concentrations ([5]; intravenous): reduced plasma glucose concentrations | rapid cancer cell death (MiaPaca2): rapid cancer cell death was demonstrated
